Measurements from the NIST ThermoML archive (doi:10.1021/je401066j).
± gives the expanded uncertainty stated by the source.

Conditions: 101 kPa, Liquid mixture 1, Drop volume

**Q.** What does the source list for `CCCCCC` [hexane] + O?
**A.** interfacial tension (288.2 K): 51.4 ± 0.4 mN/m; interfacial tension (293.2 K): 51 ± 0.4 mN/m; interfacial tension (298.2 K): 50.7 ± 0.4 mN/m; interfacial tension (303.2 K): 50.4 ± 0.4 mN/m; interfacial tension (308.2 K): 50.2 ± 0.4 mN/m
